Assay results reported in patent publication US20260347364A1, “PYRAZOLO[4,3-F]QUINAZOLINE DERIVATIVES AS MODULATORS OF G12D MUTANT KRAS USEFUL FOR THE TREATMENT OF CANCER” (JAZZ PHARMACEUTICALS IRELAND LTD., priority 2023, published 2026).

What was measured:
KRAS G12D = biological target: T1, KRAS G12D (Homo sapiens, UniProt P01116, G12D); experiment: HTRF nucleotide exchange assay, KRAS G12D; type: biochemical; details: HTRF nucleotide exchange assay (NEA), class symbols
T1 construct: aa1-188 KRAS WT, HRAS WT, NRAS WT, or KRAS containing the G12D
T1 sequence (P01116 1-188 isoform P01116-2 G12D): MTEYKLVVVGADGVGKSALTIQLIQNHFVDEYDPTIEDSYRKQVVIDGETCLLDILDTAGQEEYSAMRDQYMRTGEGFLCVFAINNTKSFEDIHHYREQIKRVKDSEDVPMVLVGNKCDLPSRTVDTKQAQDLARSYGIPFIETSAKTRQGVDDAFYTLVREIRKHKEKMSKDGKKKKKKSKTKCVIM

KRAS WT = biological target: T2, KRAS WT (Homo sapiens, UniProt P01116); experiment: HTRF nucleotide exchange assay, KRAS WT; type: biochemical; details: class symbols; for IC50: HTRF nucleotide exchange assay (NEA)
T2 construct: aa1-188 KRAS WT
T2 sequence (P01116 1-188 isoform P01116-2): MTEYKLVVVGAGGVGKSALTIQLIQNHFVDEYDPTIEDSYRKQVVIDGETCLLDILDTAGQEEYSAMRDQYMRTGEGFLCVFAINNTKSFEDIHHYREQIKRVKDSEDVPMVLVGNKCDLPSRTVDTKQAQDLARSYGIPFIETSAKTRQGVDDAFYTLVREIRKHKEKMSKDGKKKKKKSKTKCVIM

| Compound | IC50 (KRAS G12D) [nM] | IC50 (KRAS WT) [nM] | KRAS^WT NEA (KRAS WT) |
| --- | --- | --- | --- |
| CCc1c(F)ccc2cc(O)cc(-c3cc4nc(OC[C@@]56CCCN5C[C@H](F)C6)nc(N5CCC(C)C(O)C5)c4c4cn(C)nc34)c12 (stereo partly drawn) [Example 133, 1-[4-(8-ethyl-7-fluoro-3-hydroxy-1-naphthyl)-2-methyl-7-[[(2R,8S)-2-fluoro-1,2,3,5,6,7-hexahydropyrrolizin-8-yl]methoxy]pyrazolo[4,3-f]quinazolin-9-yl]-4-methyl-piperidin-3-ol] | 10 to 100 | 100 to 10000 |  |
| CCc1c(F)ccc2cc(O)cc(-c3cc4nc(OC[C@@]56CCCN5C[C@H](F)C6)nc(N5CCCC(O)(C(C)C)C5)c4c4cn(C)nc34)c12 (stereo partly drawn) [Example 134, 1-[4-(8-ethyl-7-fluoro-3-hydroxy-1-naphthyl)-2-methyl-7-[[(2R,8S)-2-fluoro-1,2,3,5,6,7-hexahydropyrrolizin-8-yl]methoxy]pyrazolo[4,3-f]quinazolin-9-yl]-3-isopropyl-piperidin-3-ol] | 100 to 10000 |  | D (<49% inhibition at 10 μM) |
| CCc1c(F)ccc2cc(O)cc(-c3cc4nc(OC[C@@]56CCCN5C[C@H](F)C6)nc(N5CCC5C(C)(C)O)c4c4cn(C)nc34)c12 (stereo partly drawn) [Example 135, 5-ethyl-6-fluoro-4-[9-[2-(1-hydroxy-1-methyl-ethyl)azetidin-1-yl]-2-methyl-7-[[(2R,8S)-2-fluoro-1,2,3,5,6,7-hexahydropyrrolizin-8-yl]methoxy]pyrazolo[4,3-f]quinazolin-4-yl]naphthalen-2-ol] | 100 to 10000 | 10 to 100 |  |
| CCc1c(F)ccc2cc(O)cc(-c3cc4nc(OC[C@@]56CCCN5C[C@H](F)C6)nc(N5CCCC6(CC(O)C6)C5)c4c4cn(C)nc34)c12 (stereo partly drawn) [Example 136, 6-[4-(8-ethyl-7-fluoro-3-hydroxy-1-naphthyl)-2-methyl-7-[[(2R,8S)-2-fluoro-1,2,3,5,6,7-hexahydropyrrolizin-8-yl]methoxy]pyrazolo[4,3-f]quinazolin-9-yl]-6-azaspiro[3.5]nonan-2-ol] | ≤ 10 | ≤ 10 |  |
| CCc1c(F)ccc2cc(O)cc(-c3c(C)c4nc(OCC5(C)CC(OC)CN5)nc(N5CCOCC(C)(O)C5)c4c4cn(C)nc34)c12 (centres unmarked) [Example 137, 4-[4-(8-ethyl-7-fluoro-3-hydroxy-1-naphthyl)-7-[(4-methoxy-2-methyl-pyrrolidin-2-yl)methoxy]-2,5-dimethyl-pyrazolo[4,3-f]quinazolin-9-yl]-6-methyl-1,4-oxazepan-6-ol] | ≤ 10 | ≤ 10 |  |
| CCc1c(F)ccc2cc(O)cc(-c3c(C)c4nc(OC[C@@H]5CCCN5C)nc(N5CCOCC(C)(O)C5)c4c4cn(C)nc34)c12 (stereo partly drawn) [Example 138, 4-[4-(8-ethyl-7-fluoro-3-hydroxy-1-naphthyl)-2,5-dimethyl-7-[[(2S)-1-methylpyrrolidin-2-yl]methoxy]pyrazolo[4,3-f]quinazolin-9-yl]-6-methyl-1,4-oxazepan-6-ol] | ≤ 10 | ≤ 10 |  |
| CCc1c(F)ccc2cc(O)cc(-c3c(C)c4nc(OC[C@]5(C)CCCN5)nc(N5CCOCC(C)(O)C5)c4c4cn(C)nc34)c12 (stereo partly drawn) [Example 139, 4-[4-(8-ethyl-7-fluoro-3-hydroxy-1-naphthyl)-2,5-dimethyl-7-[[(2S)-2-methylpyrrolidin-2-yl]methoxy]pyrazolo[4,3-f]quinazolin-9-yl]-6-methyl-1,4-oxazepan-6-ol] | ≤ 10 | ≤ 10 |  |
| CCc1c(F)ccc2cc(O)cc(-c3c(C)c4nc(OC[C@@H]5C[C@@H](F)CN5)nc(N5CCOCC(C)(O)C5)c4c4cn(C)nc34)c12 (stereo partly drawn) [Example 140, 4-[4-(8-ethyl-7-fluoro-3-hydroxy-1-naphthyl)-2,5-dimethyl-7-[[(2S,4R)-4-fluoropyrrolidin-2-yl]methoxy]pyrazolo[4,3-f]quinazolin-9-yl]-6-methyl-1,4-oxazepan-6-ol] | ≤ 10 | ≤ 10 |  |
| CCc1c(F)ccc2cc(O)cc(-c3c(C)c4nc(OCC5(C)C[C@@H](O)CN5C)nc(N5CCOCC(C)(O)C5)c4c4cn(C)nc34)c12 (stereo partly drawn) [Example 141, 4-[4-(8-ethyl-7-fluoro-3-hydroxy-1-naphthyl)-2,5-dimethyl-7-[[(4R)-4-hydroxy-1,2-dimethyl-pyrrolidin-2-yl]methoxy]pyrazolo[4,3-f]quinazolin-9-yl]-6-methyl-1,4-oxazepan-6-ol] | ≤ 10 | ≤ 10 |  |
| CCc1c(F)ccc2cc(O)cc(-c3c(C)c4nc(OCC5(CN(C)C)CC5)nc(N5CCOCC(C)(O)C5)c4c4cn(C)nc34)c12 (centres unmarked) [Example 142, 4-[7-[[1-[(dimethylamino)methyl]cyclopropyl]methoxy]-4-(8-ethyl-7-fluoro-3-hydroxy-1-naphthyl)-2,5-dimethyl-pyrazolo[4,3-f]quinazolin-9-yl]-6-methyl-1,4-oxazepan-6-ol] | ≤ 10 | ≤ 10 |  |
| CCc1c(F)ccc2cc(O)cc(-c3c(C)c4nc(OC[C@@H]5CCN5C)nc(N5CCOCC(C)(O)C5)c4c4cn(C)nc34)c12 (stereo partly drawn) [Example 143, 4-[4-(8-ethyl-7-fluoro-3-hydroxy-1-naphthyl)-2,5-dimethyl-7-[[(2S)-1-methylazetidin-2-yl]methoxy]pyrazolo[4,3-f]quinazolin-9-yl]-6-methyl-1,4-oxazepan-6-ol] | ≤ 10 | ≤ 10 |  |
| CCc1c(F)ccc2cc(O)cc(-c3c(C)c4nc(OC[C@@H]5CCN5)nc(N5CCOCC(C)(O)C5)c4c4cn(C)nc34)c12 (stereo partly drawn) [Example 144, 4-[4-(8-ethyl-7-fluoro-3-hydroxy-1-naphthyl)-2,5-dimethyl-7-[[(2S)-azetidin-2-yl]methoxy]pyrazolo[4,3-f]quinazolin-9-yl]-6-methyl-1,4-oxazepan-6-ol] | ≤ 10 | 10 to 100 |  |
| CCc1c(F)ccc2cc(O)cc(-c3c(C)c4nc(OCC5(C)CC(O)CN5)nc(N5CCOCC(C)(O)C5)c4c4cn(C)nc34)c12 (centres unmarked) [Example 145, 4-[4-(8-ethyl-7-fluoro-3-hydroxy-1-naphthyl)-7-[(4-hydroxy-2-methyl-pyrrolidin-2-yl)methoxy]-2,5-dimethyl-pyrazolo[4,3-f]quinazolin-9-yl]-6-methyl-1,4-oxazepan-6-ol] | ≤ 10 | ≤ 10 |  |
| CCc1c(F)ccc2cc(O)cc(-c3c(C)c4nc(OCC5(CN6CCCC6)CC5)nc(N5CCOCC(C)(O)C5)c4c4cn(C)nc34)c12 (centres unmarked) [Example 146, 4-[4-(8-ethyl-7-fluoro-3-hydroxy-1-naphthyl)-2,5-dimethyl-7-[[1-(pyrrolidin-1-ylmethyl)cyclopropyl]methoxy]pyrazolo[4,3-f]quinazolin-9-yl]-6-methyl-1,4-oxazepan-6-ol] | ≤ 10 | ≤ 10 |  |
| CCc1c(F)ccc2cc(O)cc(-c3c(C)c4nc(OCC56CCCN5CCC6)nc(N5CCOCC(C)(O)C5)c4c4cn(C)nc34)c12 (centres unmarked) [Example 147, 4-[4-(8-ethyl-7-fluoro-3-hydroxy-1-naphthyl)-7-(1,2,3,5,6,7-hexahydropyrrolizin-8-ylmethoxy)-2,5-dimethyl-pyrazolo[4,3-f]quinazolin-9-yl]-6-methyl-1,4-oxazepan-6-ol] | ≤ 10 | ≤ 10 |  |
| CCc1c(F)ccc2cc(O)cc(-c3c(C)c4nc(OC[C@]5(C)CCCN5C)nc(N5CCOCC(C)(O)C5)c4c4cn(C)nc34)c12 (stereo partly drawn) [Example 148, 4-[4-(8-ethyl-7-fluoro-3-hydroxy-1-naphthyl)-2,5-dimethyl-7-[[(2S)-1,2-dimethylpyrrolidin-2-yl]methoxy]pyrazolo[4,3-f]quinazolin-9-yl]-6-methyl-1,4-oxazepan-6-ol] | ≤ 10 | ≤ 10 |  |
| CCc1c(F)ccc2cc(O)cc(-c3c(C)c4nc(OCC5(CN6CCOCC6)CC5)nc(N5CCOCC(C)(O)C5)c4c4cn(C)nc34)c12 (centres unmarked) [Example 149, 4-[4-(8-ethyl-7-fluoro-3-hydroxy-1-naphthyl)-2,5-dimethyl-7-[[1-(morpholinomethyl)cyclopropyl]methoxy]pyrazolo[4,3-f]quinazolin-9-yl]-6-methyl-1,4-oxazepan-6-ol] | ≤ 10 | ≤ 10 |  |
| CCc1c(F)ccc2cc(O)cc(-c3c(F)c4nc(OC[C@@H]5C[C@@H](F)CN5)nc(N5CCOCC(C)(O)C5)c4c4cn(C)nc34)c12 (stereo partly drawn) [Example 150, 4-[4-(8-ethyl-7-fluoro-3-hydroxy-1-naphthyl)-5-fluoro-2-methyl-7-[[(2S,4R)-4-fluoropyrrolidin-2-yl]methoxy]pyrazolo[4,3-f]quinazolin-9-yl]-6-methyl-1,4-oxazepan-6-ol] | ≤ 10 | ≤ 10 |  |
| CCc1c(F)ccc2cc(O)cc(-c3c(F)c4nc(OCC5(C)CC(OC)CN5)nc(N5CCOCC(C)(O)C5)c4c4cn(C)nc34)c12 (centres unmarked) [Example 151, 4-[4-(8-ethyl-7-fluoro-3-hydroxy-1-naphthyl)-5-fluoro-7-[(4-methoxy-2-methyl-pyrrolidin-2-yl)methoxy]-2-methyl-pyrazolo[4,3-f]quinazolin-9-yl]-6-methyl-1,4-oxazepan-6-ol] | ≤ 10 | ≤ 10 |  |
| CCc1c(F)ccc2cc(O)cc(-c3c(F)c4nc(OCC5(C)CC(O)CN5)nc(N5CCOCC(C)(O)C5)c4c4cn(C)nc34)c12 (centres unmarked) [Example 152, 4-[4-(8-ethyl-7-fluoro-3-hydroxy-1-naphthyl)-5-fluoro-7-[(4-hydroxy-2-methyl-pyrrolidin-2-yl)methoxy]-2-methyl-pyrazolo[4,3-f]quinazolin-9-yl]-6-methyl-1,4-oxazepan-6-ol] | ≤ 10 | ≤ 10 |  |
| CCc1c(F)ccc2cc(O)cc(-c3c(F)c4nc(OC[C@@H]5CCCN5C)nc(N5CCOCC(C)(O)C5)c4c4cn(C)nc34)c12 (stereo partly drawn) [Example 154, 4-[4-(8-ethyl-7-fluoro-3-hydroxy-1-naphthyl)-5-fluoro-2-methyl-7-[[(2S)-1-methylpyrrolidin-2-yl]methoxy]pyrazolo[4,3-f]quinazolin-9-yl]-6-methyl-1,4-oxazepan-6-ol] | ≤ 10 | ≤ 10 |  |
| CCc1c(F)ccc2cc(O)cc(-c3c(F)c4nc(OCC5(CN6CCCC6)CC5)nc(N5CCOCC(C)(O)C5)c4c4cn(C)nc34)c12 (centres unmarked) [Example 155, 4-[4-(8-ethyl-7-fluoro-3-hydroxy-1-naphthyl)-5-fluoro-2-methyl-7-[[1-(pyrrolidin-1-ylmethyl)cyclopropyl]methoxy]pyrazolo[4,3-f]quinazolin-9-yl]-6-methyl-1,4-oxazepan-6-ol] | ≤ 10 | ≤ 10 |  |
